Measured values published in ChEMBL document CHEMBL1944615, “Synthesis and biological evaluation of deoxy-hematoxylin derivatives as a novel class of anti-HIV-1 agents” (Bioorg Med Chem Lett, 2012).

Experiments:
[1] = Inhibition of HIV1 VPR/human importin-alpha interaction in human HeLa cells assessed as inhibition of nuclear import of preintegral complex after 15 mins by confocal laser scanning microscopic analysis; type: cell-based
[2] = Cytotoxicity against human MOLT4 cells expressing CD4+ after 2 days by MTT assay; type: cell-based, MOLT-4
[3] = tested on: Human immunodeficiency virus 1; assay: Antiviral activity against HIV1 NL432 infected in human TZM-Bl cells assessed as inhibition of viral replication after 2 days by luciferase reporter gene analysis; type: functional, organism-based
[4] = tested on: Human immunodeficiency virus 1; assay: Antiviral activity against HIV1 NF-462 expressing wild-type Vpr infected in human 293T cells containing 4 ng of viral p24 antigen after 8 days by ELISA; type: functional, organism-based
[5] = tested on: Human immunodeficiency virus 1; assay: Antiviral activity against HIV1 NL432 infected in human ConA and IL2-stimulated PBMC assessed as inhibition of viral replication by reverse transcriptase assay; type: functional, organism-based
[6] = tested on: Human immunodeficiency virus 1; assay: Antiviral activity against HIV1 NF-462 expressing wild-type Vpr infected in human 293T cells containing 4 ng of viral p24 antigen after 8 days by ELISA relative to hematoxylin; type: functional
[7] = tested on: Human immunodeficiency virus 1; assay: Antiviral activity against HIV1 NF-462 expressing wild-type Vpr infected in human 293T cells containing 1 ng of viral p24 antigen after 8 days by ELISA relative to hematoxylin; type: functional
[8] = Human immunodeficiency virus 1, NF-462, HEK-293T, 192 h, read-out: IC50
[9] = Human immunodeficiency virus 1, NL432, read-out: IC50
[10] = Human immunodeficiency virus 1, NL432, TZM-bl, 48 h, read-out: IC50

Compound	IC50 [1]	CC50 at 48 h [2]	IC50 ([3]; tzm-bl)	IC50 ([4]; 293t)	IC50 [4, 8]	IC50 [5, 9]	IC50 [3, 10]	IC50 [5]	Ratio IC50 [6]	Ratio IC50 [7]
O[C@]12COc3ccccc3[C@H]1c1ccccc1C2	2700 nM	> 100000 nM	Not Active	–	–	–	–	–	–	–
Oc1cc2c(cc1O)[C@@H]1c3ccccc3OC[C@]1(O)C2	1900 nM	1900 nM	ND(toxic)	–	–	–	–	–	–	–
CC1(C)Oc2cc3c(cc2O1)[C@@H]1c2cccc(OCc4ccccc4)c2OC[C@]1(O)C3	800 nM	> 80000 nM	Not Active	Not Active	–	–	–	–	–	–
Oc1ccc2c(c1)C[C@@]1(O)COc3ccccc3[C@@H]21	600 nM	82000 nM	–	–	900 nM	25100 nM	67600 nM	–	–	–
Oc1cc2c(cc1O)[C@@H]1c3cccc(O)c3OC[C@]1(O)C2	900 nM	32000 nM	ND(toxic)	–	400 nM	–	–	ND(toxic)	–	–
Oc1cc2c(cc1O)[C@@H]1c3ccc(O)c(O)c3OC[C@]1(O)C2 [HEMATOXYLIN]	1300 nM	40000 nM	–	–	< 1000 nM	–	100000 nM	ND(toxic)	–	–
CC1(C)Oc2cc3c(cc2O1)[C@@H]1c2cccc(O)c2OC[C@]1(O)C3	500 nM	> 80000 nM	–	–	100 nM	30100 nM	24600 nM	–	10	2
